Measurements taken from US9481654B2, “Compositions and methods for inhibition of the JAK pathway” (Rigel Pharmaceuticals, Inc., priority 2006, dated 2016).
Structures can show the parent of a compound that is named as a salt.

How the values were obtained:
[1] = tested on: primary human T-cells (IL-2 induced proliferation, JAK-1/JAK-3, Stat-5); assay: Primary Human T-Cell Proliferation Assay Stimulated with IL-2 (CellTiter-Glo); type: cell-based; conditions: Table III Example 4
Description: In this assay, primary human T-cells derived from peripheral blood and pre-activated through stimulation of the T-cell receptor and CD28, proliferate in culture in response to the cytokine Interleukin-2 (IL-2). This proliferative response is dependent on the activation of JAK1 and JAK3 tyrosine kinases, which phosphorylate and activate the transcription factor Stat-5. The primary human T-cells are incubated with the 2,4-pyrimidinediamine compounds in the presence of IL-2 for 72 hours, and at the assay endpoint intracellular ATP concentrations are measured to assess cell viability. A reduction in cell proliferation compared to control conditions is indicative of inhibition of the JAK kinase pathway.
Primary human T-cells derived from peripheral blood and pre-activated through stimulation of the T-cell receptor and CD28 proliferate in vitro in response to the cytokine Interleukin-2 (IL-2). This proliferative response is dependent on the activation of JAK-1 and JAK-3 tyrosine kinases, which phosphorylate and activate the transcription factor Stat-5.
Human primary T cells were prepared as follows. […] The lymphocytes at the serum: ficoll interface were recovered and washed twice with 5 volumes of PBS. […] The primary T-cells were stimulated for 3 to 4 days, then transferred to a fresh flask and maintained in RPMI with 10% FBS and 40 U/mL IL-2.
Primary T-cells were washed twice with PBS to remove the IL-2 and resuspended in Yssel's medium at 2×10^6 cells/mL. 50 μL of cell suspension containing 80 U/mL IL-2 was added to each well of a flat bottom 96 well black plate. For the unstimulated control, IL-2 was omitted from the last column on the plate. […] 50 μL of 2× compound was added per well in duplicate and the cells were allowed to proliferate for 72 hours at 37° C.
Proliferation was measured using CellTiter-Glo® Luminescent Cell Viability Assay (Promega), which determines the number of viable cells in culture based on quantitation of the ATP present, as an indicator of metabolically active cells. The substrate was thawed and allowed to come to room temperature. After mixing the Cell Titer-Glo reagent and diluent together, 100 μL was added to each well. The plates were mixed on an orbital shaker for two minutes to induce lysis and incubated at room temperature for an additional ten minutes to allow the signal to equilibrate.

[2] = tested on: IL-4 stimulated CD23 upregulation in human Ramos B cells (JAK-1/JAK-3, Stat-6); assay: Assay for Ramos B-Cell Line Stimulated with IL-4 (CD23 upregulation, FACS); type: cell-based; conditions: Table III Example 3
Source text: One means of assaying for such inhibition is detection of the effect of the 2,4-pyrimidinediamine compounds on the upregulation of downstream gene products. In the Ramos/IL4 assay, B-cells are stimulated with the cytokine Interleukin-4 (IL-4) leading to the activation of the JAK/Stat pathway through phosphorylation of the JAK family kinases, JAK1 and JAK3, which in turn phosphorylate and activate the transcription factor Stat-6. […] To study the effect of inhibitors (e.g., the 2,4-substituted pyrimindinediamine compounds described herein) on the JAK1 and JAK3 kinases, human Ramos B cells are stimulated with human IL-4. 20 to 24 hours post stimulation, cells are stained for upregulation of CD23 and analyzed using flow cytometry (FACS).
B-cells stimulated with cytokine Interleukin-4 (IL-4) activate the JAK/Stat pathway through phosphorylation of the JAK family kinases, JAK-1 and JAK-3, which in turn phosphorylate and activate the transcription factor Stat-6. […] To study the effect of inhibitors on the JAK family kinases, human Ramos B cells are stimulated with human IL-4.
Cells were maintained at a density of 3.5×10^5. The day before the experiment, Ramos B-cells were diluted to 3.5×10^5 cells/mL to ensure that they were in a logarithmic growth phase.
Cells were spun down and suspended in RPMI with 5% serum. 5×10^4 cells were used per point in a 96-well tissue culture plate. Cells were pre-incubated with compound or DMSO (Sigma-Aldrich, St. Louis, Mo., Cat No. D2650) vehicle control for 1 hour in a 37° C. incubator. Cells were then stimulated with IL-4 (Peprotech Inc., Rocky Hill, N.J., Cat No. 200-04) for a final concentration of 50 units/mL for 20-24 hours. […] Detection was performed using a BD LSR I System Flow Cytometer, purchased from Becton Dickinson Biosciences of San Jose, Calif.

Compound | IC50 ([1]; Homo sapiens, T-cell) [nM] | IC50 ([2]; Homo sapiens, Ramos) [nM] | IC50 [1] [nM] | IC50 [2] [nM]
C#CCNS(=O)(=O)Cc1cccc(Nc2nc(Nc3ccc(S(N)(=O)=O)cc3)ncc2F)c1 [Compound I-2, N2-(4-Aminosulfonylphenyl)-5-fluoro-N4-[3-(prop-2-ynylaminosulfonylmethyl)phenyl]-2,4-pyrimidinediamine] | 3730 | 647 |  | 
C#CCNS(=O)(=O)Cc1ccc(Nc2nc(Nc3ccc(S(N)(=O)=O)cc3)ncc2F)cc1 [Compound I-6, N2-(4-Aminosulfonylphenyl)-5-fluoro-N4-[4-(prop-2-ynylaminosulfonylmethyl)phenyl]-2,4-pyrimidinediamine] | 536 | 559 |  | 
C#CCNS(=O)(=O)c1cccc(Nc2ncc(F)c(Nc3ccc(CNS(=O)(=O)C4CC4)cc3)n2)c1 [Compound I-7, 5-Fluoro-N4-[4-(cyclopropylsulfonylaminomethyl)phenyl]-N2-[3-(prop-2-ynylaminosulfonyl)phenyl]-2,4-pyrimidinediamine] | 113 | 73.5 |  | 
CCS(=O)(=O)N[C@@H](C)c1ccc(Nc2nc(Nc3ccc(S(N)(=O)=O)cc3)ncc2F)cc1 [Compound I-26, N2-(4-aminosulfonyl)phenyl-N4-[4-(1S-ethylsulfonylamino)ethyl]phenyl-5-fluoro-2,4-pyrimidinediamine] |  |  | 1160 | 252
CCS(=O)(=O)N[C@H](C)c1ccc(Nc2nc(Nc3ccc(S(N)(=O)=O)cc3)ncc2F)cc1 [Compound I-29, N2-(4-aminosulfonyl)phenyl-N4-[4-(1R-ethylsulfonylamino)ethyl]phenyl-5-fluoro-2,4-pyrimidinediamine] |  |  | 882 | 203
NS(=O)(=O)c1ccc(Nc2ncc(F)c(Nc3cccc(CNS(=O)(=O)C4CC4)c3)n2)cc1 [Compound I-32, N2-(4-aminosulfonyl)phenyl-N4-(3-cyclopropylsulfonylaminomethyl)phenyl-5-fluoro-2,4-pyrimidinediamine] |  |  | 1560 | 364
NS(=O)(=O)c1ccc(Nc2ncc(F)c(Nc3ccc(CNS(=O)(=O)c4cccs4)cc3)n2)cc1 [Compound I-35, N2-(4-aminosulfonyl)phenyl-5-fluoro-N4-[4-(thiophen-2-yl)sulfonylaminomethyl]phenyl-2,4-pyrimidinediamine] |  |  | 436 | 133
Cc1nc(N)sc1S(=O)(=O)NCc1ccc(Nc2nc(Nc3cccc(S(N)(=O)=O)c3)ncc2F)cc1 [Compound I-41, N4-[4-(2-amino-4-methylthiazol-5-yl)sulfonylaminomethyl]phenyl-N2-(3-aminosulfonyl)phenyl-5-fluoro-2,4-pyrimidinediamine] |  |  | 2120 | 1020
CC(=O)Nc1nc(C)c(S(=O)(=O)NCc2ccc(Nc3nc(Nc4cccc(S(N)(=O)=O)c4)ncc3F)cc2)s1 [Compound I-42, N4-[4-(2-acetylamino-4-methylthiazol-5-yl)sulfonylaminomethyl]phenyl-N2-(3-aminosulfonyl)phenyl-5-fluoro-2,4-pyrimidinediamine] |  |  | 3220 | 1150
CC(=O)Nc1nc(C)c(S(=O)(=O)NCc2ccc(Nc3nc(Nc4ccc(C)c(S(N)(=O)=O)c4)ncc3F)cc2)s1 [Compound I-44, N4-[4-(2-acetylamino-4-methylthiazol-5-yl)sulfonylaminomethyl]phenyl-N2-(3-aminosulfonyl-4-methyl)phenyl-5-fluoro-2,4-pyrimidinediamine] |  |  | 4160 | 1220
CCS(=O)(=O)NCc1ccc(Nc2nc(Nc3ccc(S(N)(=O)=O)cc3)ncc2F)cc1Cl [Compound I-74, N2-(4-aminosulfonyl)phenyl-N4-(3-chloro-4-ethylsulfonylaminomethyl)phenyl-5-fluoro-2,4-pyrimidinediamine] |  |  | 2250 | 362
CCS(=O)(=O)NCc1ccc(Nc2nc(Nc3ccc(C)c(S(N)(=O)=O)c3)ncc2F)cc1Cl [Compound I-76, N2-(3-aminosulfonyl-4-methyl)phenyl-N4-(3-chloro-4-ethylsulfonylaminomethyl)phenyl-5-fluoro-2,4-pyrimidinediamine] |  |  | 463 | 169
NS(=O)(=O)c1cc(Nc2ncc(F)c(Nc3ccc(CNS(=O)(=O)C4CC4)cc3)n2)cc(S(N)(=O)=O)c1 [Compound I-82, N4-(4-cyclopropylsulfonylaminomethyl)phenyl-N2-(3,5-diaminosulfonyl)phenyl-5-fluoro-2,4-pyrimidinediamine] |  |  | 964 | 1100
CS(=O)(=O)CS(=O)(=O)NCc1ccc(Nc2nc(Nc3ccc(S(N)(=O)=O)cc3)ncc2F)cc1 [Compound I-85, N2-(4-aminosulfonyl)phenyl-5-fluoro-N4-[4-(methylsulfonylmethylsulfonylamino)methyl]phenyl-2,4-pyrimidinediamine] |  |  | 3900 | 3100
CCCC(=O)N(Cc1cccc(Nc2nc(Nc3cccc(S(N)(=O)=O)c3)ncc2C)c1)S(=O)(=O)C1CC1 [Compound I-224, N2-(3-aminosulfonyl)phenyl-N4-[3-(N-butyryl-N-cyclopropylsulfonyl)aminomethyl]phenyl-5-methyl-2,4-pyrimidinediamine] |  |  |  | 21.8
CCCC(=O)N(COC(C)=O)S(=O)(=O)c1cccc(Nc2ncc(C)c(Nc3cccc(CNS(=O)(=O)C4CC4)c3)n2)c1 [Compound I-225, N2-[3-(N-acetoxymethyl-N-butyryl)aminosulfonyl]phenyl-N4-(3-cyclopropylsulfonylaminomethyl)phenyl-5-methyl-2,4-pyrimidinediamine] |  |  |  | 115
CCC(=O)NS(=O)(=O)c1cccc(Nc2ncc(C)c(Nc3cccc(CN(C(=O)CC)S(=O)(=O)C4CC4)c3)n2)c1 [Compound I-226, N4-[3-(N-cyclopropylsulfonyl-N-propionyl)aminomethyl]phenyl-5-methyl-N2-(3-propionylaminosulfonyl)phenyl-2,4-pyrimidinediamine Choline salt] |  |  |  | 5490
Cc1ccc(Nc2ncc(F)c(Nc3ccc4c(c3)CN(S(=O)(=O)C3CC3)C4)n2)cc1S(N)(=O)=O [II-4, N2-(3-Aminosulfonyl-4-methylphenyl)-N4-[(2-cyclopropylsulfonyl)-isoindolin-5-yl]-5-fluoro-2,4-pyrimidinediamine] |  |  |  | 720
NS(=O)(=O)c1cccc(Nc2ncc(F)c(Nc3ccc4c(c3)CN(S(=O)(=O)C3CC3)C4)n2)c1 [II-5, N2-(3-Aminosulfonyl-phenyl)-N4-[(2-cyclopropylsulfonyl)-isoindolin-5-yl]-5-fluoro-2,4-pyrimidinediamine] |  |  |  | 698
NS(=O)(=O)c1ccc(Nc2ncc(F)c(Nc3ccc4c(c3)CN(S(=O)(=O)C3CC3)C4)n2)cc1 [II-6, N2-(4-Aminosulfonyl-phenyl)-N4-[(2-cyclopropylsulfonyl)-isoindolin-5-yl]-5-fluoro-2,4-pyrimidinediamine] |  |  |  | 640
N4-[3-(N-cyclopropylsulfonyl-N-valeryl)aminomethyl]phenyl-5-methyl-N2-(3-valerylaminosulfonyl)phenyl-2,4-pyrimidinediamine sodium salt [Compound I-221] |  |  |  | 1880
N4-[4-(N-cyclopropylsulfonyl-N-propionyl)aminomethyl]phenyl-5-methyl-N2-(4-propionylaminosulfonyl)phenyl-2,4-pyrimidinediamine sodium salt [Compound I-78] |  |  |  | 1080
